In patent US7202085B2, “Control of gene expression in eukaryotic cells” (Calgene LLC, priority 1999, dated 2007):
Several values for one entry are separate records, joined by “and”; a condition that tells them apart may be missing. Equal entries are not always repeated.

Test system: VP16-TraR
Experiment: Transient GUS reporter assay in carrot protoplasts with VP16-TraR effector and tra box reporter
Format: cell-based, Agrobacterium tumefaciens
Settings: Table 8: TraA8(4X) +TraR
Source text: Carrot protoplasts were transfected with the TraA8 (4×)-GUS reporter construct with the 35S-VP16-TraR activator gene and tested for GUS induction by application of wild type AHL and the various AHL analogs described in Example 8.

With CCCCCCC(C(C)=O)C(=O)N[C@@H](CCO)C(=O)O (stereo partly drawn) [compound 26, N-(α-Hexyl-b-ketobutanoyl)-(S)-homoserine] the “1, 2, 3 (replicate GUS activities at the lower concentration)” value (5 μM) was 382.0 and 407.6 and 373.1, the “4, 5, 6 (replicate GUS activities at the higher concentration)” value (12.5 μM) was 2145.8 and 1764.6 and 1527.0 and the “1, 2, 3 (replicate GUS activities at the lower concentration)” value (25 μM) was 1658.7 and 1300.7 and 1586.6. The “4, 5, 6 (replicate GUS activities at the higher concentration)” value (75 μM) was 2585.3 and 3238.5 and 2815.8.
